Assay results: US20260055078A1, “COMPOUND FUNCTIONING AS SMARCA2/4 INHIBITOR AND USE THEREOF” (Gan & Lee Pharmaceuticals Co., Ltd., priority 2022, published 2026)

Legend:
SMARCA2^BD protein = target: T1, SMARCA2^BD protein (Homo sapiens, UniProt P51531, I1395R); assay: Fluorescence polarization (FP) detection, SMARCA2 bromodomain; format: binding; conditions: probe 10 nM, SMARCA2^BD protein 50 nM, 2 h room temperature
T1 construct: His-SMARCA2^BD(S1377-Q1486); His6 (leader mhhhhhhgslvpr\gs, with thrombin-type site lvpr\gs) (N); made in house
T1 sequence (P51531 1377-1486 isoform P51531-2 I1395R): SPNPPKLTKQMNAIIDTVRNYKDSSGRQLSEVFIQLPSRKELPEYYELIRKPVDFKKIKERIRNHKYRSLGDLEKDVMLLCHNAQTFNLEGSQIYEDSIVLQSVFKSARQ
Protocol: (§1) • 1. Perform a fluorescence polarization assay on with the target protein, which has been expressed and purified from prokaryotic cells to a purity of >90%.
(§2) • 2. The fluorescence polarization assay was conducted in a 384-well plate (3820, Corning) protected from light, with an excitation wavelength of 485 nm and an emission wavelength of 520 nm. Fluorescent probe was used in the experiment, and the buffer solution was 25 mM Bis-Tris, 0.01% Triton X-100, at pH 7.5. The final concentration of DMSO after the addition of the compound was less than 1%. The final detection volume per well was 125 μl, containing 50 μl of the fluorescent probe (final concentration 10 nM), 50 μl of SMARCA2^BD protein (final concentration 50 nM) or 50 μl of SMARCA4^BD protein (final concentration 120 nM), and 25 μl of the compound at various concentrations (final concentration ranging from 0 to 100 µM with a 3-fold dilution, a total of 11 concentrations). A control group (probe+protein), a probe control group (probe only), and a blank control group (buffer only) were set up. The fluorescence values were read by an ELISA reader r (SPARK m1000 pro, TECAN) after incubation for 2 h at room temperature on a shaker. The polarization value mP is calculated based on the fluorescence values in parallel and perpendicular directions of each well, and then the inhibition rate is calculated based on the mP value:
(§3) The inhibition rate data was plotted in GraphPad Prism 8.0 software and the IC50 value was calculated.

SMARCA4^BD protein = target: T2, SMARCA4^BD protein (Homo sapiens, UniProt P51532); assay: Fluorescence polarization (FP) detection, SMARCA4 bromodomain; format: binding; conditions: probe 10 nM, SMARCA4^BD protein 120 nM, 2 h room temperature
T2 construct: His6 (leader mhhhhhhgslvpr\gs, with thrombin-type site lvpr\gs) (N); made in house
T2 sequence (P51532 1448-1575): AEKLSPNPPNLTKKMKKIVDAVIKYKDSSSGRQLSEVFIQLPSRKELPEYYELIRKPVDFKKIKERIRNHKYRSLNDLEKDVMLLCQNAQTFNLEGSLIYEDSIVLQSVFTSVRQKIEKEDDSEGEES
Protocol: as §1, §2, §3

Hela cell line = assay: Cell proliferation assay (CCK-8), Hela; format: cell-based; conditions: Homo sapiens, 72 h, Table 2, 3 days incubation with compound, read-out: Hela cell line CCK8 IC50
Protocol: (§4) The antiproliferative activity of the compounds on the cells was determined by CCK-8 kit (C0039, Biotronik). Hela (CCL-2™, ATCC) and SW1573 (CRL-2170™, ATCC) cells were incubated with DMEM medium (11995065, Gibco) containing 10% FBS (10099141C, Gibco) at 37° C. with 5% CO2 until entering the logarithmic growth phase. In 96-well plates, 2500 cells (Hela) or 800 cells (SW1573) were added in a volume of 100 μL, the blank control group was 100 μL of medium, and after one day of incubation at 37° C., 5% CO2, 100 μL of compounds of different concentrations were added (final concentration of […], 3-fold dilution, a total of 9 concentrations), and the control group was added to 100 μL of medium and continued to incubate for 3 days (Hela) or 7 days (SW1573). Then 20 μL of CCK-8 solution were added. Finally, the absorbance at 450 nm was measured using a microplate reader (SPARK m1000 pro, TECAN) after incubation at 37° C. for 1.5 h (Hela) or 2.5 h (SW1573).
(§5) The inhibition rate of the compounds on the cells at different concentrations was calculated based on the OD values of each well, and the inhibition rate data were plotted in GraphPad Prism 8.0 software to calculate the IC50 values.

SW1573 cell line = assay: Cell proliferation assay (CCK-8), SW1573; format: cell-based; conditions: Homo sapiens, SW1573, 168 h; Table 2; 7 days incubation with compound; read-out: SW1573 cell line CCK8 IC50
Protocol: as §4, §5

148 cancer cells = conditions: background, literature; cited from earlier work
[1] = aryl ketone linked to tertiary amines; limited intracellular exposure time; literature; cited from earlier work
A549 cell line = assay: Cell proliferation assay (CCK-8), A549; format: cell-based; conditions: Homo sapiens, A549, 96 h; Table 1; 4 days incubation with compound; read-out: A549 cell line CCK8 IC50
Protocol: (§6) The antiproliferative activity of the compounds on the cells was determined by CCK-8 kit (C0039, Biotronik). A549 (CCL-185™, ATCC) and MCF-7 (HTB-22™, ATCC) cells were incubated with F-12K medium (30-2004, ATCC) containing 10% FBS (10099141C, Gibco) and DMEM medium (11995065, Gibco) containing 10% FBS, respectively, at 37° C. with 5% CO2 until entering the logarithmic growth phase. In 96-well plates, 2800 cells (A549) or 1000 cells (MCF-7) was added in a volume of 100 μL, the blank control group was 100 μL of medium. After one day of incubation at 37° C., 5% CO2, 100 μL of compounds of different concentrations were added (final concentration of […], 3-fold dilution, a total of 9 concentrations), and the control group was added to 100 μL of medium and continued to be incubation for 4 days (A549) or 7 days (MCF-7). According to the manufacturer's instructions, 20 μL of CCK-8 solution was added. Finally, the absorbance at 450 nm was measured using a microplate reader (SPARK m1000 pro, TECAN) after incubation at 37° C. for 2 h (A549) or 4 h (MCF-7).
as §5

MCF-7 cell line = assay: Cell proliferation assay (CCK-8), MCF-7; format: cell-based; conditions: Homo sapiens, MCF7, 168 h; Table 1; 7 days incubation with compound; read-out: MCF-7 cell line CCK8 IC50
Protocol: as §6, §5

| IC50 (SMARCA2^BD protein; Table 2) [µM] | IC50 (SMARCA4^BD protein; Table 2) [µM] | IC50 (Hela cell line) [µM] | IC50 (SW1573 cell line) [µM] | IC50 (SMARCA2^BD protein; Table 1) [µM] | IC50 (SMARCA4^BD protein; Table 1) [µM] | IC50 (A549 cell line) [µM] | IC50 (MCF-7 cell line) [µM] | Compound | inhibitory activity in 148 cancer cells (148 cancer cells) | chemical stability [1] |
| --- | --- | --- | --- | --- | --- | --- | --- | --- | --- | --- |
| 0.19 | 0.21 | 25.3 | 13.1 | – | – | – | – | COC1(C#Cc2cc(-c3ccccc3O)nnc2N)CCC(N2CCCC2)CC1 (stereo not shown) [Compound 15, 2-(6-amino-5-((1-methoxy-4-(pyrrolidin-1-yl)cyclohexyl)ethynyl)pyridazin-3-yl)phenol] | – | – |
| – | – | > 100 | > 100 | 0.7 | 0.53 | > 100 | 73.9 | CC(=O)N1CCN(c2cc(-c3ccccc3O)nnc2N)CC1 [Control compound, reference compound] | – | – |
| 0.17 | 0.12 | 39 | 91.2 | – | – | – | – | CN(C)[C@H]1[C@@H]2CN(c3cc(-c4ccccc4O)nnc3N)C[C@@H]21 [Compound 20, 2-(6-amino-5-((1R,5S,6s)-6-(dimethylamino)-3-azabicyclo[3.1.0]hex-3-yl)pyridazin-3-yl)phenol] | – | – |
| 0.13 | 0.25 | 68.4 | > 100 | – | – | – | – | CC(=O)N[C@H]1[C@@H]2CN(c3cc(-c4ccccc4O)nnc3N)C[C@@H]21 [Compound 21, N-((1R,5S,6s)-3-(3-amino-6-(2-hydroxyphenyl)pyridazin-4-yl)-3-azabicyclo[3.1.0]hexan-6-yl)acetamide] | – | – |
| 1.1 | > 3.7 | 66.3 | 99 | – | – | – | – | COc1ccc(C#Cc2cc(-c3ccccc3O)nnc2N)cc1 [Compound 17, 2-(6-amino-5-((4-methoxyphenyl)ethynyl)pyridazin-3-yl)phenol] | – | – |

More lines, now with the values behind:

| Compound | IC50 (SMARCA2^BD protein; Table 2) [µM] | IC50 (SMARCA4^BD protein; Table 2) [µM] | IC50 (Hela cell line) [µM] | IC50 (SW1573 cell line) [µM] | IC50 (SMARCA2^BD protein; Table 1) [µM] | IC50 (SMARCA4^BD protein; Table 1) [µM] | IC50 (A549 cell line) [µM] | IC50 (MCF-7 cell line) [µM] | inhibitory activity in 148 cancer cells (148 cancer cells) | chemical stability [1] |
| --- | --- | --- | --- | --- | --- | --- | --- | --- | --- | --- |
| O=C(/C=C/N1C[C@H]2C[C@@H]1CN2c1ccccn1)c1ccccc1O [PFI-3] | – | – | – | – | – | – | – | – | did not show significant inhibitory activity | poor chemical stability |
| Nc1nnc(-c2ccccc2O)cc1C#CC1CCNCC1 [Compound 1c, 2-(6-amino-5-(piperidin-4-ylethynyl)pyridazin-3-yl)phenol] | – | – | – | – | 0.19 | 0.3 | 25.4 | 12 | – | – |
| Nc1nnc(-c2ccccc2O)cc1C#CC1CNC1 [Compound 3c, 2-(6-amino-5-(azetidinyl-3-ethylenylidene)pyridazin-3-yl)phenol] | – | – | – | – | 0.48 | 0.57 | 73.3 | 31 | – | – |
| Nc1nnc(-c2ccccc2O)cc1C#CC1CCC2(CC1)CNC2 [Compound 5c, 2-(5-((2-Azaspiro[3.5]nonan-7-yl)ethynyl)-6-aminopyridazin-3-yl)phenol] | – | – | – | – | 0.13 | 0.13 | 15.4 | 7.65 | – | – |
| Nc1nnc(-c2ccccc2O)cc1C#CC1CC2(CCNCC2)C1 [Compound 10c, 2-(5-((7-Azaspiro[3.5]nonan-2-yl)ethynyl)-6-aminopyridazin-3-yl)phenol] | – | – | – | – | 0.19 | 0.14 | 14.6 | 7.03 | – | – |
| Nc1nnc(-c2ccccc2O)cc1C#CC1CCC2(CCNCC2)CC1 [Compound 6c, 2-(5-((3-Azaspiro[5.5]undecan-9-yl)ethynyl)-6-aminopyridazin-3-yl)phenol] | – | – | – | – | 0.2 | 0.15 | 13.6 | 3.7 | – | – |
| Nc1nnc(-c2ccccc2O)cc1C#CC1CCNC1 (stereo not shown) [Compound 2c, 2-(6-Amino-5-(pyrrolidin-3-ylethynyl)pyridazin-3-yl)phenol] | – | – | – | – | 0.33 | 0.28 | 7.17 | 4.73 | – | – |
| Nc1nnc(-c2ccccc2O)cc1C#CC1CC2(CNC2)C1 [Compound 4c, 2-(5-((2-Azaspiro[3.3]hept-6-yl)ethynyl)-6-aminopyridazin-3-yl)phenol] | – | – | – | – | 0.19 | 0.15 | 15.7 | 12.4 | – | – |
